# From PubChem BioAssay AID248 (DTP/NCI, 2004)
# Several values for one entry are separate records, joined by “and”; a condition that tells them apart may be missing. Identical values can stand only once. Toxic doses and inconclusive results are not listed.
# Test system: L1210 leukemia ip in BDF1 mice, survival T/C
# Experiment: NCI In Vivo Anticancer Drug Screen. Data for tumor model L1210 Leukemia (intraperitoneal) in B6D2F1 (BDF1) mice
# Conditions: endpoint: mean survival time, higher = longer survival
# Summary of the method: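 Tumor was transplanted into mice, which were then dosed with test compound or vehicle alone. Survival was recorded for each group, and the treated figure was expressed relative to the control figure.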
# [1] = dose: 100.0 mg/kg/injection, schedule: Q04DX003 (ip), vehicle: Klucel (hydroxypropylcellulose) (HPC)
# [2] = dose: 200.0 mg/kg/injection, schedule: Q04DX003 (ip), vehicle: Klucel (hydroxypropylcellulose) (HPC)
# [3] = dose: 400.0 mg/kg/injection, schedule: Q04DX003 (ip), vehicle: Klucel (hydroxypropylcellulose) (HPC)
# [4] = dose: 100.0 mg/kg/injection, schedule: Q01DX009 (ip), vehicle: saline
# [5] = dose: 100.0 mg/kg/injection, schedule: Q04DX003 (ip), vehicle: saline
# [6] = dose: 200.0 mg/kg/injection, schedule: Q04DX003 (ip), vehicle: saline
# [7] = dose: 400.0 mg/kg/injection, schedule: Q04DX003 (ip), vehicle: saline
# [8] = dose: 100.0 mg/kg/injection, schedule: Q01DX009 (ip), vehicle: saline with Tween-80
# [9] = dose: 200.0 mg/kg/injection, schedule: Q01DX009 (ip), vehicle: saline with Tween-80
# [10] = dose: 200.0 mg/kg/injection, schedule: Q01DX009 (ip), vehicle: saline
structure (smiles),measurement,setting,value
COC(OC)c1cc(S)[nH]c(=O)c1F,T/C,[1],98 % of control
same,T/C,[2],97 % of control
same,T/C,[3],103 % of control
c1ccc2c(c1)ccc1c3c([nH]c12)CCCC3,T/C,"dose: 100.0 mg/kg/injection, schedule: Q01DX001 (ip), vehicle: carboxymethylcellulose (CMC)",88 % of control
same,T/C,"dose: 200.0 mg/kg/injection, schedule: Q01DX001 (ip), vehicle: carboxymethylcellulose (CMC)",98 % of control
same,T/C,"dose: 400.0 mg/kg/injection, schedule: Q01DX001 (ip), vehicle: carboxymethylcellulose (CMC)",88 % of control
CC(=O)NNC(=O)c1cccnc1,T/C,"dose: 100.0 mg/kg/injection, schedule: Q01DX001 (ip), vehicle: water",95 % of control
same,T/C,"dose: 100.0 mg/kg/injection, schedule: Q01DX009 (ip), vehicle: water",95 % of control
same,T/C,"dose: 200.0 mg/kg/injection, schedule: Q01DX001 (ip), vehicle: water",104 % of control
same,T/C,"dose: 200.0 mg/kg/injection, schedule: Q01DX009 (ip), vehicle: water",101 % of control
same,T/C,"dose: 400.0 mg/kg/injection, schedule: Q01DX001 (ip), vehicle: water",101 % of control
same,T/C,"dose: 400.0 mg/kg/injection, schedule: Q01DX009 (ip), vehicle: water",116 % of control
same,T/C,"dose: 800.0 mg/kg/injection, schedule: Q01DX009 (ip), vehicle: water",116 % of control
O=C1NC(=O)C(F)(F)C(O)N1 (stereo not drawn),T/C,"dose: 45.0 mg/kg/injection, schedule: Q01DX009 (ip), vehicle: saline",117 % of control
same,T/C,"dose: 65.0 mg/kg/injection, schedule: Q01DX009 (ip), vehicle: saline",94 % of control
same,T/C,[4],92 % of control
same,T/C,[5],108 % of control
same,T/C,"dose: 150.0 mg/kg/injection, schedule: Q01DX009 (ip), vehicle: saline",97 % of control
same,T/C,[6],117 % of control
same,T/C,"dose: 220.0 mg/kg/injection, schedule: Q01DX009 (ip), vehicle: saline",90 % of control
same,T/C,[7],120 % of control
Cc1ccccc1CN1CCN(CCOC(c2ccccc2)c2ccccc2Cl)CC1 (stereo not drawn),T/C,"dose: 12.5 mg/kg/injection, schedule: Q01DX009 (ip), vehicle: Klucel (hydroxypropylcellulose) (HPC)",97 % of control
same,T/C,"dose: 25.0 mg/kg/injection, schedule: Q01DX009 (ip), vehicle: Klucel (hydroxypropylcellulose) (HPC)",97 % of control
same,T/C,"dose: 25.0 mg/kg/injection, schedule: Q04DX003 (ip), vehicle: Klucel (hydroxypropylcellulose) (HPC)",107 % of control
same,T/C,"dose: 50.0 mg/kg/injection, schedule: Q01DX009 (ip), vehicle: Klucel (hydroxypropylcellulose) (HPC)",102 % of control
same,T/C,"dose: 50.0 mg/kg/injection, schedule: Q04DX003 (ip), vehicle: Klucel (hydroxypropylcellulose) (HPC)",100 % of control
same,T/C,[1],105 % of control
same,T/C,[2],100 % of control
CN(C(=O)c1ccncc1)c1ccccc1,T/C,"dose: 50.0 mg/kg/injection, schedule: Q01DX009 (ip), vehicle: carboxymethylcellulose (CMC)",93 % of control and 98 % of control
same,T/C,"dose: 50.0 mg/kg/injection, schedule: Q04DX002 (ip), vehicle: carboxymethylcellulose (CMC)",95 % of control and 100 % of control
same,T/C,"dose: 50.0 mg/kg/injection, schedule: Q04DX003 (ip), vehicle: carboxymethylcellulose (CMC)",95 % of control
same,T/C,"dose: 100.0 mg/kg/injection, schedule: Q01DX009 (ip), vehicle: carboxymethylcellulose (CMC)",98 % of control and 90 % of control
same,T/C,"dose: 100.0 mg/kg/injection, schedule: Q04DX002 (ip), vehicle: carboxymethylcellulose (CMC)",100 % of control (2×) and 106 % of control
same,T/C,"dose: 100.0 mg/kg/injection, schedule: Q04DX003 (ip), vehicle: carboxymethylcellulose (CMC)",97 % of control
same,T/C,"dose: 200.0 mg/kg/injection, schedule: Q01DX009 (ip), vehicle: carboxymethylcellulose (CMC)",90 % of control and 91 % of control
same,T/C,"dose: 200.0 mg/kg/injection, schedule: Q04DX002 (ip), vehicle: carboxymethylcellulose (CMC)",97 % of control (2×) and 98 % of control
same,T/C,"dose: 200.0 mg/kg/injection, schedule: Q04DX003 (ip), vehicle: carboxymethylcellulose (CMC)",98 % of control
same,T/C,"dose: 400.0 mg/kg/injection, schedule: Q04DX002 (ip), vehicle: carboxymethylcellulose (CMC)",93 % of control
CNC(=N)c1ccc(NC(=N)c2ccc(NC(=O)Nc3cccc(NC(=O)Nc4ccc(C(=N)Nc5ccc(C(=N)NC)cc5)cc4)c3)cc2)cc1,T/C,"dose: 0.31 mg/kg/injection, schedule: Q01DX015 (ip), vehicle: water",103 % of control
same,T/C,"dose: 0.62 mg/kg/injection, schedule: Q01DX015 (ip), vehicle: water",115 % of control
same,T/C,"dose: 1.0 mg/kg/injection, schedule: Q01DX Z (ip), vehicle: water",154 % of control
same,T/C,"dose: 2.0 mg/kg/injection, schedule: Q01DX Z (ip), vehicle: water",158 % of control
same,T/C,"dose: 3.5 mg/kg/injection, schedule: Q01DX Z (ip), vehicle: water",150 % of control
same,T/C,"dose: 4.0 mg/kg/injection, schedule: Q01DX Z (ip), vehicle: water",150 % of control
same,T/C,"dose: 5.0 mg/kg/injection, schedule: Q01DX015 (ip), vehicle: water",162 % of control
same,T/C,"dose: 7.0 mg/kg/injection, schedule: Q01DX Z (ip), vehicle: water",172 % of control
same,T/C,"dose: 7.5 mg/kg/injection, schedule: Q01DX015 (ip), vehicle: water",203 % of control
same,T/C,"dose: 10.0 mg/kg/injection, schedule: Q01DX015 (ip), vehicle: water",241 % of control
same,T/C,"dose: 10.0 mg/kg/injection, schedule: Q01DX Z (ip), vehicle: water",236 % of control
same,T/C,"dose: 14.25 mg/kg/injection, schedule: Q01DX Z (ip), vehicle: water",193 % of control
same,T/C,"dose: 15.0 mg/kg/injection, schedule: Q01DX015 (ip), vehicle: water",340 % of control
same,T/C,"dose: 28.5 mg/kg/injection, schedule: Q01DX Z (ip), vehicle: water",92 % of control
CC[N+](C)(CC)CCCOC(=O)c1ccccc1Oc1ccc(C)cc1,T/C,[5],104 % of control
same,T/C,[6],93 % of control
CC(=O)Nc1cc(Cl)cc2c1-c1c(Cl)cc(Cl)cc1C2=O,T/C,[4],98 % of control
same,T/C,[1],94 % of control
same,T/C,[2],94 % of control
same,T/C,[3],91 % of control
Clc1nc2ccccc2c2ccccc12,T/C,"dose: 43.0 mg/kg/injection, schedule: Q01DX001 (ip), vehicle: carboxymethylcellulose (CMC)",96 % of control
same,T/C,"dose: 85.0 mg/kg/injection, schedule: Q01DX001 (ip), vehicle: carboxymethylcellulose (CMC)",92 % of control
same,T/C,"dose: 170.0 mg/kg/injection, schedule: Q01DX001 (ip), vehicle: carboxymethylcellulose (CMC)",92 % of control
COC1C(OC(C)=O)C(OC(C)=O)C(OC(C)=O)C(OC(C)=O)C1OC(C)=O (stereo not drawn),T/C,"dose: 50.0 mg/kg/injection, schedule: Q01DX009 (ip), vehicle: saline with Tween-80",94 % of control
same,T/C,[8],98 % of control
same,T/C,[9],88 % of control
O=C1C(c2ccccc2)=C2C(=C1c1ccccc1)c1cccc3cccc2c13,T/C,"dose: 50.0 mg/kg/injection, schedule: Q01DX001 (ip), vehicle: saline",97 % of control
same,T/C,"dose: 100.0 mg/kg/injection, schedule: Q01DX001 (ip), vehicle: saline",97 % of control
same,T/C,[8],92 % of control
same,T/C,"dose: 200.0 mg/kg/injection, schedule: Q01DX001 (ip), vehicle: saline",100 % of control
same,T/C,[9],103 % of control
same,T/C,"dose: 400.0 mg/kg/injection, schedule: Q01DX001 (ip), vehicle: saline",120 % of control
same,T/C,"dose: 400.0 mg/kg/injection, schedule: Q01DX009 (ip), vehicle: saline with Tween-80",97 % of control
CN(C)N=Nc1c(Cl)cc(Cl)cc1C(N)=O,T/C,"dose: 100.0 mg/kg/injection, schedule: Q01DX001 (ip), vehicle: saline with Tween-80",108 % of control
same,T/C,[8],111 % of control
same,T/C,"dose: 100.0 mg/kg/injection, schedule: Q04DX003 (ip), vehicle: saline with Tween-80",106 % of control
same,T/C,"dose: 133.0 mg/kg/injection, schedule: Q01DX009 (ip), vehicle: saline with Tween-80",123 % of control
same,T/C,"dose: 200.0 mg/kg/injection, schedule: Q01DX001 (ip), vehicle: saline with Tween-80",111 % of control
same,T/C,[9],165 % of control
same,T/C,[10],115 % of control
same,T/C,"dose: 200.0 mg/kg/injection, schedule: Q04DX003 (ip), vehicle: saline with Tween-80",110 % of control
same,T/C,"dose: 300.0 mg/kg/injection, schedule: Q01DX009 (ip), vehicle: saline with Tween-80",150 % of control
same,T/C,"dose: 300.0 mg/kg/injection, schedule: Q01DX009 (ip), vehicle: saline",100 % of control
same,T/C,"dose: 400.0 mg/kg/injection, schedule: Q01DX001 (ip), vehicle: saline with Tween-80",117 % of control
O=C1CCCN1C1=CC2=C(CCc3ccccc32)S(=O)(=O)O1,T/C,[4],90 % of control
same,T/C,[5],100 % of control
same,T/C,[10],90 % of control
same,T/C,[6],94 % of control
same,T/C,"dose: 400.0 mg/kg/injection, schedule: Q01DX009 (ip), vehicle: saline",95 % of control
same,T/C,[7],108 % of control
